According to PubChem BioAssay (NCI):
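Method: 48-hour compound exposure of cells in 96-well plates, five concentrations, linear interpolation of endpoints. GI50 is the concentration that inhibits growth by half. TGI marks complete inhibition of growth.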

Legend:
Test in all cases: DTP human tumour cell line panel, 48 h
[1] = tested on: SF-268 CNS
[2] = tested on: UACC-257 melanoma
[3] = tested on: A549 NSCLC
[4] = tested on: DU-145 prostate
[5] = tested on: BT-549 breast
[6] = tested on: HOP-62 NSCLC
[7] = tested on: HCT-15 colon
[8] = tested on: HCC-2998 colon
[9] = tested on: TK-10 renal
[10] = tested on: K-562 leukemia
[11] = tested on: HS 578T breast
[12] = tested on: UACC-62 melanoma
[13] = tested on: OVCAR-3 ovarian
[14] = tested on: KM12 colon
[15] = tested on: OVCAR-8 ovarian
[16] = tested on: SNB-19 CNS
[17] = tested on: U251 CNS
[18] = tested on: SN12C renal
[19] = tested on: A498 renal
[20] = tested on: NCI-H522 lung
[21] = tested on: LOX IMVI melanoma
[22] = tested on: HCT-116 colon
[23] = tested on: SF-539 CNS
[24] = tested on: HL-60(TB) leukemia
[25] = tested on: NCI/ADR-RES ovarian
[26] = tested on: SNB-75 CNS
[27] = tested on: MDA-MB-435
[28] = tested on: OVCAR-4 ovarian
[29] = tested on: NCI-H460 lung
[30] = tested on: EKVX NSCLC
[31] = tested on: COLO 205 colon
[32] = tested on: 786-0 renal
[33] = tested on: HT29 colon
[34] = tested on: NCI-H23 lung
[35] = tested on: OVCAR-5 ovarian
[36] = tested on: SW-620 colon
[37] = tested on: NCI-H226 lung
[38] = tested on: SF-295 CNS
[39] = tested on: MCF7 breast
[40] = tested on: RXF 393 renal
[41] = tested on: MDA-MB-231 breast
[42] = tested on: PC-3 prostate
[43] = tested on: IGROV1 ovarian
[44] = tested on: CCRF-CEM leukemia
[45] = tested on: SK-MEL-28 melanoma
[46] = tested on: SR leukemia
[47] = tested on: SK-MEL-5 melanoma
[48] = tested on: RPMI-8226 leukemia
[49] = tested on: SK-MEL-2 melanoma
[50] = tested on: ACHN renal
[51] = tested on: UO-31 renal
[52] = tested on: MALME-3M melanoma
[53] = tested on: CAKI-1 renal
[54] = tested on: HOP-92 NSCLC
[55] = tested on: MOLT-4 leukemia
[56] = tested on: MDA-MB-468 breast
[57] = tested on: M14 melanoma
[58] = tested on: T-47D breast
[59] = tested on: SK-OV-3 ovarian

In the case of `COc1c2c(cc3c1C(CCc1ccccc1)N(C)CC3)OCO2` (stereo not drawn), the GI50 [1] is reported as 17.3 µM, the TGI [1] is reported as over 100 µM and the GI50 [2] is reported as 29.3 µM. For the same compound, the TGI [2] was over 100 µM, the GI50 [3] was 31.5 µM and the TGI [3] was over 100 µM. It also gave a GI50 [4] of 36 µM, a TGI [4] of over 100 µM and a GI50 [5] of 14.3 µM. For the same compound, the TGI [5] was 35.5 µM, the GI50 [6] was 8.32 µM and the TGI [6] was over 100 µM. The GI50 [7] was 22.5 µM, the TGI [7] was over 100 µM and the GI50 [8] was 18.1 µM. It also gave a TGI [8] of 61.1 µM, a GI50 [9] of 47.2 µM and a TGI [9] of over 100 µM. The GI50 [10] was 17.8 µM, the TGI [10] was over 100 µM and the GI50 [11] was 14.2 µM. For the same compound, the TGI [11] was 67 µM, the GI50 [12] was 12 µM and the TGI [12] was 43.9 µM. It also gave a GI50 [13] of 13.8 µM, a TGI [13] of 77.3 µM and a GI50 [14] of 21.4 µM. It also gave a TGI [14] of 70 µM, a GI50 [15] of 31.3 µM and a TGI [15] of over 100 µM. It also gave a GI50 [16] of 21.7 µM, a TGI [16] of over 100 µM and a GI50 [17] of 24.5 µM. For the same compound, the TGI [17] was over 100 µM, the GI50 [18] was 10.2 µM and the TGI [18] was over 100 µM. It also gave a GI50 [19] of 12.1 µM, a TGI [19] of 48.3 µM and a GI50 [20] of 18.4 µM. The TGI [20] was 65.4 µM, the GI50 [21] was 5.31 µM and the TGI [21] was 19.4 µM. The GI50 [22] was 4.32 µM, the TGI [22] was over 100 µM and the GI50 [23] was 10.7 µM. It also gave a TGI [23] of 35.5 µM, a GI50 [24] of 4.8 µM and a TGI [24] of 26.4 µM. For the same compound, the GI50 [25] was 15.6 µM, the TGI [25] was 81.1 µM and the GI50 [26] was 11.6 µM. For the same compound, the TGI [26] was 54 µM, the GI50 [27] was 6.25 µM and the TGI [27] was 36.5 µM. The GI50 [28] was 26.4 µM, the TGI [28] was over 100 µM and the GI50 [29] was 7.61 µM. The TGI [29] was 54.3 µM, the GI50 [30] was 30.5 µM and the TGI [30] was over 100 µM. It also gave a GI50 [31] of 10.4 µM, a TGI [31] of 36.5 µM and a GI50 [32] of 18.7 µM. It also gave a TGI [32] of over 100 µM, a GI50 [33] of 5.9 µM and a TGI [33] of 65.3 µM. The GI50 [34] was 16.2 µM, the TGI [34] was over 100 µM and the GI50 [35] was 9.57 µM. It also gave a TGI [35] of over 100 µM, a GI50 [36] of 10.3 µM and a TGI [36] of 59.6 µM. For the same compound, the GI50 [37] was 13.8 µM, the TGI [37] was over 100 µM and the GI50 [38] was 4.34 µM. For the same compound, the TGI [38] was 28.9 µM, the GI50 [39] was 14.6 µM and the TGI [39] was 43.1 µM. The GI50 [40] was 11.8 µM, the TGI [40] was 55 µM and the GI50 [41] was 10 µM. It also gave a TGI [41] of 40.7 µM, a GI50 [42] of 11.3 µM and a TGI [42] of over 100 µM. The GI50 [43] was 10 µM, the TGI [43] was 62.6 µM and the GI50 [44] was 19.2 µM. For the same compound, the TGI [44] was over 100 µM, the GI50 [45] was 15.8 µM and the TGI [45] was 59.3 µM. For the same compound, the GI50 [46] was 10.6 µM, the TGI [46] was 53.3 µM and the GI50 [47] was 13.8 µM. It also gave a TGI [47] of 26.8 µM, a GI50 [48] of 6.07 µM and a TGI [48] of 38.2 µM. For the same compound, the GI50 [49] was 24.6 µM, the TGI [49] was 98.3 µM and the GI50 [50] was 13.5 µM. The TGI [50] was over 100 µM, the GI50 [51] was 8.35 µM and the TGI [51] was over 100 µM. It also gave a GI50 [52] of 13 µM, a TGI [52] of 27.3 µM and a GI50 [53] of 10.5 µM. For the same compound, the TGI [53] was over 100 µM, the GI50 [54] was 5.53 µM and the TGI [54] was 56.1 µM. For the same compound, the GI50 [55] was 15.8 µM, the TGI [55] was 65.1 µM and the GI50 [56] was 11.7 µM. The TGI [56] was 27.4 µM, the GI50 [57] was 7.57 µM and the TGI [57] was 36.5 µM. For the same compound, the GI50 [58] was 11.3 µM, the TGI [58] was 49.2 µM and the GI50 [59] was 27.4 µM. The TGI [59] was over 100 µM.
